Blank lines part the entries; values can stand above or below the compound they belong to. Calls of active or inactive are those of the source. No cut-off for these calls is given here.
Columns and labels:
NRK-49F [1] = assay: Inhibition of TGF-beta1-induced total collagen accumulation in rat NRK-49F cells at 10 uM; format: functional
RAW264.7 = assay: Inhibition of LPS-induced TNFalpha production in mouse RAW264.7 cells 10 uM; format: functional
NRK-49F [2] = assay: Inhibition of TGF-beta1-induced total collagen accumulation in rat NRK-49F cells; format: functional, cell-based
NRK-49F [3] = assay: Inhibition of TGF-beta1-induced total collagen accumulation in rat NRK-49F cells at 3 uM by picro-sirius red staining method; format: functional, cell-based
NRK-49F [4] = assay: Inhibition of TGF-beta1-induced total collagen accumulation in rat NRK-49F cells at 5 uM by picro-sirius red staining method; format: functional, cell-based
Mus musculus [5] = assay: Anti-fibrotic activity in mouse bleomycin-induced lung fibrosis model assessed as reduction in lung injury at 20 mg/kg/day, ip before bleomycin injection by H and E staining; format: functional, organism-based
Mus musculus [6] = assay: Anti-fibrotic activity in mouse bleomycin-induced lung fibrosis model assessed as cumulative proportion of survival at 20 mg/kg/day, ip before bleomycin injection measured on day 28; format: functional; conditions: 672 h, route intraperitoneal
Mus musculus [7] = assay: Anti-fibrotic activity in mouse bleomycin-induced lung fibrosis model assessed as reduction in lymphocytes in bronchoalveolar lavage fluid at 20 mg/kg/day, ip before bleomycin injection; format: functional; conditions: route intraperitoneal
Mus musculus [8] = assay: Anti-fibrotic activity in mouse bleomycin-induced lung fibrosis model assessed as reduction in inflammatory infiltrate level at 20 mg/kg/day, ip before bleomycin injection by H and E staining; format: functional, organism-based
Mus musculus [9] = assay: Anti-fibrotic activity in mouse bleomycin-induced lung fibrosis model assessed as slowing of body weight loss at 20 mg/kg/day, ip before bleomycin injection measured on day 28; format: functional, organism-based
Mus musculus [10] = assay: Anti-fibrotic activity in mouse bleomycin-induced lung fibrosis model assessed as reduction of lung collagen deposition at 20 mg/kg/day, ip before bleomycin injection by H and E staining; format: functional, organism-based
Mus musculus [11] = assay: Anti-fibrotic activity in mouse bleomycin-induced lung fibrosis model assessed as reduction in leukocytes in bronchoalveolar lavage fluid at 20 mg/kg/day, ip before bleomycin injection; format: functional; conditions: route intraperitoneal
Mus musculus [12] = assay: Anti-fibrotic activity in mouse bleomycin-induced lung fibrosis model assessed as reduction in hydroxyproline level at 20 mg/kg/day, ip before bleomycin injection; format: functional
Mus musculus [13] = assay: Anti-fibrotic activity in mouse bleomycin-induced lung fibrosis model assessed as reduction in neutrophils in bronchoalveolar lavage fluid at 20 mg/kg/day, ip before bleomycin injection; format: functional; conditions: route intraperitoneal

SMILES: Cc1ccc2[nH]cc(C(=O)Nc3cc(O)c(C(C)(C)C)cc3C(C)(C)C)c(=O)c2c1
inhibition at 10 µM (NRK-49F [1]): 49.9%

SMILES: CCn1cc(C(=O)Nc2ccc(C(C)(C)C)cc2)c(=O)c2cc(C(C)(C)C)ccc21
inhibition at 10 µM (NRK-49F [1]): 34.3%

SMILES: CC(C)(C)c1ccc2[nH]cc(C(=O)Nc3cccc(Cl)c3)c(=O)c2c1
inhibition at 10 µM (NRK-49F [1]): 30.5%

SMILES: CC(C)(C)c1cccc(NC(=O)c2c[nH]c3ccc(C(C)(C)C)cc3c2=O)c1
inhibition at 10 µM (NRK-49F [1]): 44.8%

IC50 (NRK-49F [2]): 2.3 µM
SMILES: CC(C)(C)c1ccc(NC(=O)c2cn(CCN3CCOCC3)c3ccc(C(C)(C)C)cc3c2=O)cc1
inhibition (INH) (RAW264.7): 69.5% | inhibition (NRK-49F [3]): Active | inhibition (NRK-49F [4]): Active | inhibition at 10 µM (NRK-49F [1]): 71.1%

SMILES: CC(C)(C)c1ccc2[nH]cc(C(=O)Nc3ccccc3C(C)(C)C)c(=O)c2c1
inhibition at 10 µM (NRK-49F [1]): 54.3%

SMILES: CC(C)(C)c1ccc(NC(=O)c2cn(CCCl)c3ccc(C(C)(C)C)cc3c2=O)cc1
inhibition at 10 µM (NRK-49F [1]): 35.8%

SMILES: COc1ccc2[nH]cc(C(=O)Nc3cc(O)c(C(C)(C)C)cc3C(C)(C)C)c(=O)c2c1
inhibition at 10 µM (NRK-49F [1]): 53.1%

SMILES: CC(C)(C)c1ccc(NC(=O)c2cn(CCCN3CCOCC3)c3ccc(C(C)(C)C)cc3c2=O)cc1
inhibition at 10 µM (NRK-49F [1]): 30.2%

SMILES: CC(C)(C)c1ccc(NC(=O)c2c[nH]c3ccc(C(C)(C)C)cc3c2=O)cc1
inhibition (Mus musculus [5]): inactive | inhibition (INH) (RAW264.7): 61.6% | survival at 20 mg/kg/day (Mus musculus [6]): 83.3% | inhibition in vivo at 20 mg/kg/day (Mus musculus [7]): 33.6% | inhibition (Mus musculus [8]): inactive | Activity (Mus musculus [9]): Active | inhibition (Mus musculus [10]): inactive | inhibition in vivo at 20 mg/kg/day (Mus musculus [11]): 40.3% | IC50 (NRK-49F [2]): 2 µM | inhibition (NRK-49F [3]): Active | inhibition (Mus musculus [12]): Active | inhibition in vivo at 20 mg/kg/day (Mus musculus [13]): 39.7% | inhibition at 10 µM (NRK-49F [1]): 81%

IC50 (NRK-49F [2]): 4.1 µM
SMILES: CC(C)(C)c1ccc2[nH]cc(C(=O)Nc3ccc(C(C)(C)C)c(N)c3)c(=O)c2c1
inhibition (INH) (RAW264.7): 71.3% | inhibition (NRK-49F [3]): Active | inhibition at 10 µM (NRK-49F [1]): 67.9%

SMILES: CCc1ccc(NC(=O)c2c[nH]c3ccc(C(C)(C)C)cc3c2=O)cc1
inhibition at 10 µM (NRK-49F [1]): 19.4%

SMILES: COc1cc(NC(=O)c2c[nH]c3ccc(C(C)(C)C)cc3c2=O)cc(OC)c1OC
inhibition (Mus musculus [5]): Active | inhibition (INH) (RAW264.7): 70.8% | survival at 20 mg/kg/day (Mus musculus [6]): 72.2% | inhibition in vivo at 20 mg/kg/day (Mus musculus [7]): 15.8% | inhibition (Mus musculus [8]): Active | Activity (Mus musculus [9]): Active | inhibition (Mus musculus [10]): Active | inhibition in vivo at 20 mg/kg/day (Mus musculus [11]): 54.8% | IC50 (NRK-49F [2]): 2.5 µM | inhibition (NRK-49F [3]): Active | inhibition in vivo at 20 mg/kg/day (Mus musculus [12]; route intraperitoneal): 52.4% | inhibition (NRK-49F [4]): Active | inhibition in vivo at 20 mg/kg/day (Mus musculus [13]): 57.7% | inhibition at 10 µM (NRK-49F [1]): 77.1%

SMILES: CN1CCN(CCn2cc(C(=O)Nc3ccc(C(C)(C)C)cc3)c(=O)c3cc(C(C)(C)C)ccc32)CC1
inhibition at 10 µM (NRK-49F [1]): 46.6%

SMILES: COc1ccc(NC(=O)c2c[nH]c3ccc(C(C)(C)C)cc3c2=O)cc1OC
inhibition at 10 µM (NRK-49F [1]): 32.6%

SMILES: CCCCn1cc(C(=O)Nc2ccc(C(C)(C)C)cc2)c(=O)c2cc(C(C)(C)C)ccc21
inhibition at 10 µM (NRK-49F [1]): 16.9%

SMILES: Cc1ccc(NC(=O)c2c[nH]c3ccc(C(C)(C)C)cc3c2=O)cc1
inhibition at 10 µM (NRK-49F [1]): 28.9%

SMILES: CN1CCN(CCCn2cc(C(=O)Nc3ccc(C(C)(C)C)cc3)c(=O)c3cc(C(C)(C)C)ccc32)CC1
inhibition at 10 µM (NRK-49F [1]): 52.1%

SMILES: CC(C)(C)c1ccc2[nH]cc(C(=O)Nc3ccc(F)cc3)c(=O)c2c1
inhibition at 10 µM (NRK-49F [1]): 23.5%

SMILES: CC(C)(C)c1ccc(NC(=O)c2cn(CCN3CCCC3)c3ccc(C(C)(C)C)cc3c2=O)cc1
inhibition at 10 µM (NRK-49F [1]): 44.8%

SMILES: CCc1ccc2[nH]cc(C(=O)Nc3cc(O)c(C(C)(C)C)cc3C(C)(C)C)c(=O)c2c1
inhibition at 10 µM (NRK-49F [1]): 55.9%

SMILES: CC(C)(C)c1ccc2[nH]cc(C(=O)Nc3ccc(C(C)(C)C)c([N+](=O)[O-])c3)c(=O)c2c1
inhibition (INH) (RAW264.7): 47.7% | inhibition at 10 µM (NRK-49F [1]): 75.7%

SMILES: COc1ccccc1NC(=O)c1c[nH]c2ccc(C(C)(C)C)cc2c1=O
inhibition at 10 µM (NRK-49F [1]): 47.9%

SMILES: CC(C)(C)c1ccc(NC(=O)c2cn(Cc3ccccc3)c3ccc(C(C)(C)C)cc3c2=O)cc1
inhibition at 10 µM (NRK-49F [1]): 9.1%

SMILES: CC(C)(C)c1cc(C(C)(C)C)c(NC(=O)c2c[nH]c3ccc(F)cc3c2=O)cc1O
inhibition at 10 µM (NRK-49F [1]): 51.6%

SMILES: CC(C)(C)c1ccc(NC(=O)c2cn(CCN3CCCCC3)c3ccc(C(C)(C)C)cc3c2=O)cc1
inhibition at 10 µM (NRK-49F [1]): 30.1%

SMILES: COc1ccc(NC(=O)c2c[nH]c3ccc(C(C)(C)C)cc3c2=O)cc1
inhibition at 10 µM (NRK-49F [1]): 23.5%

SMILES: CC(C)(C)c1cc(C(C)(C)C)c(NC(=O)c2c[nH]c3ccccc3c2=O)cc1O [IVACAFTOR]
inhibition (Mus musculus [5]): inactive | inhibition (INH) (RAW264.7): 63.2% | inhibition (Mus musculus [8]): inactive | inhibition (Mus musculus [10]): inactive | IC50 (NRK-49F [2]): 4 µM | inhibition at 10 µM (NRK-49F [1]): 64.7%

SMILES: CC(C)(C)c1ccc2[nH]cc(C(=O)Nc3cc(O)c(C(C)(C)C)cc3C(C)(C)C)c(=O)c2c1
inhibition (INH) (RAW264.7): 45.7% | inhibition at 10 µM (NRK-49F [1]): 73.8%

SMILES: CC(C)(C)c1ccc2[nH]cc(C(=O)Nc3ccc(Cl)cc3)c(=O)c2c1
inhibition at 10 µM (NRK-49F [1]): 27.2%

Reference: ChEMBL document CHEMBL3351704, “Synthesis and biological evaluation of 4-oxoquinoline-3-carboxamides derivatives as potent anti-fibrosis agents” (Bioorg Med Chem Lett, 2014)
